The results in this text go back to patent US7279479B2, “Method for the treatment of heart failure” (Orion Corporation, priority 2001, dated 2007).

The structures appear in SMILES notation.

The subject of assay [1] is guinea-pigs intoxicated with verapamil. Description: Survival of anesthetized guinea-pigs intoxicated with verapamil (acute heart failure). Type of assay: in vivo, guinea-pig (Dunkin Hartley). The note with it: verapamil 2.0 mg/kg i.v.; 60 min follow-up; low doses: levosimendan 8.4 μg/kg bolus + 0.14 μg/kg/min, CaCl2 10 mg/kg bolus + 0.5 mg/kg/min; vs saline control.
Method: At zero time, the intoxication was started with an intravenous bolus injection of verapamil and immediately continued with a 4-min infusion. The total dose of verapamil was 2.0 mg/kg. Control animals were treated with saline.
(§1) 120 spontaneously breathing guinea-pigs (Dunkin Hartley, weighing 470±5 grams, mean±SEM) were anesthetised with isoflurane. The left ventricular and brachial arterial pressures were measured. The carotid artery was surgically exposed in order to introduce a pressure transducer into the left ventricle. A fluid-filled polyethylene cannula was inserted into the brachial artery and connected to another pressure transducer for recording of arterial pressure. The pressure signals were amplified, digitized and sampled.
The subject of assay [2] is guinea-pigs intoxicated with diltiazem. As to the kind of experiment: Survival of anesthetized guinea-pigs intoxicated with diltiazem (acute heart failure). Type of assay: in vivo, guinea-pig (Dunkin Hartley). The conditions noted are these: diltiazem 4.5 mg/kg i.v.
Method: At zero time, the intoxication was started with an intravenous bolus injection of diltiazem and immediately continued with a 4-min infusion. The total dose of diltiazem was 4.5 mg/kg. Control animals were treated with saline. All treatments were started one minute after the end of the diltiazem infusion. *p<0.05, **p<0.01, ***p<0.001 vs. control (Kaplan-Meier survival analysis followed by the logrank test).
as §1

As for `CC1CC(=O)NN=C1c1ccc(NN=C(C#N)C#N)cc1` (single isomer, unassigned; (-)) [levosimendan, (−)-enantiomer of [[4-(1,4,5,6-tetrahydro-4-methyl-6-oxo-3-pyridazinyl)phenyl]hydrazono]propanedinitrile], the “effect on survival (in words)” value in assay [1] is “did not improve the survival”. The survival rate in assay [2] (60 minutes after intoxication began, levosimendan 8.4 μg/kg bolus + 0.14 μg/kg/min, control 13%) is recorded as 63%.

As for `[Ca+2].[Cl-].[Cl-]` [calcium chloride], the “effect on survival (in words)” value was “did not affect the survival rate” in assay [1] and “did not affect the survival rate” in assay [2] (60 min follow-up, low doses: levosimendan 8.4 μg/kg bolus + 0.14 μg/kg/min, CaCl2 10 mg/kg bolus + 0.5 mg/kg/min, vs saline control).
